Measurements: patent US20150374718A1, “Zhankuic Acid A and Analogs thereof and Their Use as an Anti-Inflammatory Agent” (National Cheng Kung University, priority 2014, published 2015)
“Also recorded” adds a separate entry of the source.

Legend:
[1] = tested on: LPS-induced NO production; details: reference (10); cited from earlier work
[2] = tested on: LPS-induced TNF-α and IL-6 production; assay: ELISA of cytokines in LPS-treated RAW264.7 cells; type: cell-based, murine; details: ZAA 1 h, LPS 0.25 or 0.5 μg/mL
[3] = tested on: LPS-induced lung and renal injury; assay: LPS-induced lung and renal injury in mice; details: ZAA 20 mg/kg i.p., LPS 4 mg/kg i.p., 10 h
Procedure: After 10 h, mice were sacrificed, and their lung and kidney tissues were removed. […] (B) The number of infiltrated PMNs in each alveolus was observed by light microscopy (original magnification ×200). The number of PMNs was counted in four randomly chosen fields per slide for each mouse and normalized to the number of alveoli. […] Values shown in B-D are means ±SD (n=10; **p<0.01 and ***p<0.001).
The lung and kidney were embedded in paraffin, sectioned, and stained with hematoxylin and eosin. Serum samples were collected for determination of blood urea nitrogen (BUN) and serum creatinine levels.

COX2 and iNOS = assay: Immunoblot of COX2 and iNOS in LPS-stimulated peritoneal macrophages; type: cell-based, murine; details: ZAA 1 h, then LPS 0.5 μg/mL 24 h; dose-dependent
Procedure: (§1) FIG. 1. ZAA inhibits the production of inflammation-related molecules in LPS- and IFN-γ-stimulated murine macrophages. […] Total cell lysates were subjected to immunoblotting for detecting COX2 and iNOS. Relative expression levels of COX2 and iNOS protein were quantified by densitometric analysis with ImageJ software and normalized according to the β-actin reference band. […] The presence of nitrite in the culture medium was analyzed by the Griess assay and used as an indication of NO levels (n=4; *p<0.05 and ***p<0.001 vs. LPS- or IFN-γ-induced cells). (C) Raw264.7 cells were cotransfected with pNFKB-Luc and pβ-actin-LacZ plasmids. […] Total cell lysates were harvested, and their luciferase activities were determined and normalized on the basis of β-galactosidase activities. Values are means±SD (n=4; *p<0.05 and **p<0.01 vs. LPS-stimulated cells). […] Numbers below the blots in D and those shown in the table below the blots in E represent the relative expression levels quantified by densitometric analysis with ImageJ software and normalized according to the β-actin reference bands. […]
(§2) C57BL/6 mice were injected intraperitoneally with 3% thioglycollate, and their peritoneal macrophages were collected 72 h later. […] The presence of nitrite (a metabolite of NO) in the culture medium was analyzed by the Griess assay (Sigma-Aldrich), as previously described (16).

[4] = tested on: S. choleraesuis-induced TNF-α and IL-6 production; assay: Plasma cytokines in S. choleraesuis-infected mice; type: in vivo; details: C57BL/6 mice; ZAA 10 mg/kg, oral S. choleraesuis 2×10^9 CFU/mouse; 6 h
NO production = assay: Griess assay of nitrite (NO) in macrophage culture medium; type: cell-based, murine; details: ZAA 1 h, dose-dependent
Procedure: as §1, §2

[5] = tested on: S. choleraesuis-induced TNF-α and IL-6 production; assay: ELISA of cytokines in S. choleraesuis-treated RAW264.7 cells; type: cell-based, murine; details: ZAA 1 h, 2×10^3 CFU/well
human neutrophils = details: reference (9), cited from earlier work
[6] = tested on: NF-κB-mediated transactivation in Raw264.7 cells; assay: NF-κB luciferase reporter assay; type: cell-based, murine; details: ZAA 1 h, then LPS 24 h
Procedure: as §1, with “activities.” for “activities. Values are means±SD (n=4; *p<0.05 and **p<0.01 vs. LPS-stimulated cells).”
Subconfluent Raw264.7 cells cultured in 24-well plates were cotransfected with p-NFκB-Luc and pβ-actin-LacZ plasmids using the Neon Transfection System (Invitrogen, Carlsbad, Calif.) according to the manufacturer's protocol. […] Relative luciferase activity was measured as luciferase activity divided by β-galactosidase activity to normalize transfection efficiency.

[7] = tested on: LPS-induced TNF-α and IL-6 production; assay: Plasma cytokines in LPS-injected mice; type: in vivo; details: ZAA i.p. 30 min before LPS 4 mg/kg i.p., 6 h
S. choleraesuis [8] = assay: S. choleraesuis-induced diarrhea model in mice
Procedure: (A and B) C57BL/6 mice that had been pretreated intraperitoneally with ZAA (2 or 10 mg/kg) or the vehicle for 30 min were orally administered with kanamycin-resistant S. choleraesuis (2×10^9 CFU/mouse). Diarrhea was scored after 2 days on a 0-3 scale (0=normal pellets, 1=slightly loose feces, 2=loose feces, and 3=watery diarrhea) (A). Body weight was recorded every 2 days for 2 weeks (n=9-12; **p<0.01 and ***p<0.001) (B). (C) Fecal samples were collected at 24-h intervals until 96 h after S. choleraesuis infection and assessed for viable bacterial CFU counts (n=10; **p<0.01 and ***p<0.001).
The pEGFP-N1 (ΔEGFP)-transformed S. choleraesuis (2×10^9 CFU/mouse) was orally administered to mice with or without oral pretreatment of ZAA (2 or 10 mg/kg). […] Fecal samples were collected at 24-h intervals until 96 h after S. choleraesuis infection. S. choleraesuis in the feces was quantified by plating serial dilutions of fecal samples on kanamycin-containing agar plates and counting colonies after overnight incubation at 37° C. Mice were monitored daily for symptoms of diarrhea and loss of body weight. Diarrhea was defined according to a diarrhea score of 0-3 (0=normal pellets, 1=slightly loose feces, 2=loose feces, and 3=watery diarrhea) as previously described (21).

S. choleraesuis [9] = assay: S. choleraesuis growth in LB broth (absorbance at 600 nm); details: 24 or 48 h, various concentrations, listed as ZAA
Procedure: S. choleraesuis was cultured in LB broth for 24 or 48 h in the presence of various concentrations of ZAA or ampicillin that served as a positive control. Bacterial growth was assessed by measurement of the absorbance at 600 nm and is expressed as means±SD of at least three independent experiments.

LPS-induced lethality = assay: LPS-induced sepsis model (lethality); type: in vivo; details: C3H/HeN mice; ZAA 2 or 10 mg/kg i.p., LPS 20 mg/kg i.p.
Procedure: The mice were monitored every 2-4 h until all C3H/HeN mice in the ZAA-untreated and LPS-treated group expired.

[10] = TLR4 signaling-defective C3H/HeJ mice

In the case of `C=C(CC[C@@H](C)[C@H]1CC[C@H]2C3=C(C(=O)C[C@]12C)[C@@]1(C)CCC(=O)[C@@H](C)[C@@H]1CC3=O)C(C)C(=O)O` (stereo partly drawn) [No. 1, Zhankuic acid A], the “LPS-induced NO production” value [1] is listed as “inhibiting”, the “LPS-induced TNF-α production” value ([2]; supernatant after 4 h) is listed as “inhibited” and the “LPS-induced IL-6 production” value ([2]; supernatant after 6 h) is listed as “inhibited”. For the same molecule, the “LPS-induced pulmonary accumulation of PMNs” value ([3]; C3H/HeN mice) was “significantly prevented”, the “extent of LPS-induced glomerulonephritis” value ([3]; C3H/HeN mice) was “significantly reduced” and the BUN level [3] was “markedly reduced”. For the same molecule, the serum creatinine level [3] was “markedly reduced”, the “level of COX2 induced by LPS” value (COX2 and iNOS) was “downregulated” and the “level of iNOS induced by LPS” value (COX2 and iNOS) was “downregulated”. The “S. choleraesuis-induced IL-6 production” value [4] was “effectively suppressed”, the “S. choleraesuis-induced TNF-α production” value [4] was “effectively suppressed” and the “IFN-γ-induced NO production” value (NO production; then IFN-γ 50 ng/mL 24 h) was “inhibited”. For the same molecule, the “LPS-induced NO production” value (NO production; then LPS 0.5 μg/mL 24 h) was “inhibited”, the “S. choleraesuis-induced TNF-α production” value ([5]; 4 h) was “effectively suppressed” and the “S. choleraesuis-induced IL-6 production” value ([5]; 6 h) was “effectively suppressed”. For the same molecule, the ROS production (human neutrophils; fMLP- or PMA-activated peripheral human neutrophils) was “inhibits”, the cytotoxicity (human neutrophils; human neutrophils) was “without exerting significant cytotoxicity” and the “inflammatory responses by human neutrophils” value (human neutrophils) was “prevent inflammatory responses”. For the same molecule, the “NF-κB-mediated transactivation (relative luciferase activity)” value [6] was “inhibited”, the “plasma IL-6 production” value ([7]; C3H/HeN mice) was “significantly reduced” and the “plasma TNF-α production” value ([7]; C3H/HeN mice) was “significantly reduced”. For the same molecule, the “plasma IL-6 production” value [7, 10] was “a much weaker response”, the “plasma TNF-α production” value [7, 10] was “a much weaker response” and the fecal bacterial level (S. choleraesuis [8]; 96 h after bacterial infection, ZAA 10 mg/kg) was “undetectable”. For the same molecule, the body weight loss (S. choleraesuis [8]; C57BL/6 mice, ZAA 10 mg/kg) was “dramatically attenuated”, the “time to return to normal body weight” value (S. choleraesuis [8]; C57BL/6 mice, ZAA 10 mg/kg) was ≤ 2 weeks and the fecal bacterial load (S. choleraesuis [8]; C57BL/6 mice, ZAA 2 or 10 mg/kg, 24-96 h, dose- and time-dependent) was “dramatically reduced”. The diarrhea score (S. choleraesuis [8]; C57BL/6 mice, ZAA 2 or 10 mg/kg, scored after 2 days, 0-3 scale) was “reduced”, the “direct effect on growth / replication of Salmonella” value (S. choleraesuis [9]) was “cannot inhibit; also recorded: no direct inhibitory effects” and the “protection against LPS-induced lethality (survival)” value (LPS-induced lethality) was “significantly protected”.
